The source of these data is paper PMC8205030, “Methoxy and bromo scans on N-(5-methoxyphenyl) methoxybenzenesulphonamides reveal potent cytotoxic compounds, especially against the human breast adenocarcinoma MCF7 cell line” (Journal of Enzyme Inhibition and Medicinal Chemistry, 2021).

Broadly, the IC50 is the concentration needed to halve the response being measured.

In test [1] the test system is HEK293 (human embryonic kidney) cells. The experiment in a line: Cell growth assay (XTT), non-tumorigenic HEK293. Type of test: cell-based. How it is done:
The presence of mycoplasma was routinely checked with MycoAlert kit (Lonza-Cambrex) and only mycoplasma-free cells were used in the experiments. Tumour cell lines were kindly provided by Dr Faustino Mollinedo from Centro de Investigaciones Biológicas Margarita Salas, Madrid, Spain. To determine cell growth, cells in exponential growth phase were seeded (100 µL/well in 96-well plates) with appropriate cell concentration (1.5 × 10^4 cells/mL for MCF7, HeLa and HEK-293 and 3 × 10^4 cells/mL for HT-29) in complete DMEM or RPMI 1640 medium (see above) at 37 °C and 5% CO2 atmosphere. After 24 h incubation, to allow cells to attach to the plates, all compounds were added at 1 µM concentration (10 µL/well in 96-well plates) and the effect on the proliferation was evaluated 72 h post-treatment. Compounds showing antiproliferative effects at tested concentration were selected for IC50 calculation (50% inhibitory concentration compared to the untreated controls) from 10^−5 to 10^−10 M concentration. Nonlinear curves fitting the experimental data were carried out for each compound. […] A freshly prepared mixture solution of XTT labelling reagent with 0.02% (v/v) PMS (N-methyl-dibenzopyrazine methyl sulfate) electron coupling reagent was added to cells (50 µL/well in 96-well plates, the total volume of 160 µL/well) and were incubated during the corresponding time according to each cell line (4 h for MCF7 and HeLa and 6 h for HT-29 and HEK-293) in a humidified atmosphere (37 °C, 5% CO2). The absorbance of the formazan product generated was measured at a test wavelength of 450 nm using a multi-well plate reader (Ultra Evolution, Tecan, Männedorf, Suiza). Compounds were dissolved in DMSO and the final solvent concentrations never exceeded 0.5% (v/v). The control wells included treated cells with 0.5% (v/v) DMSO and the positive control. 10 µM verapamil was included as a control for the HT-29 cell line. Measurements were performed in triplicate, and each experiment was repeated three times.
A general note: Tetrazolium dyes change colour on reduction, which living cells bring about.

Test [2] concerns microtubule network of HeLa cells. In words: Immunofluorescence of microtubule network, HeLa. Type of test: cell-based, human. The following applies: 175 nM, 72 h, confocal microscopy. As to the method:
MCF7, HeLa, and HT-29 cells were grown on round glass coverslips coated with poly-L-lysine (12 mm diameter). To reach appropriate cell confluence, coverslips were manipulated in 6-well plates (3 coverslips/well) seeding 3 ml/well of cells in the exponential growth phase at 2 × 10^4 cells/mL. After 24 h incubation, cells were treated with compound 25 at 175 nM and incubated for 72 h. Cells were washed with PBS, fixed with 4% formaldehyde in PBS for 10 min, permeabilized with 0.5% Triton X-100 (Boehringer Mannheim, Ingelheimam Rhein, Germany) in PBS for 10 min, and blocked with 10% BSA in PBS for 30 min. Then, coverslips were incubated with anti-α-tubulin mouse monoclonal antibody (diluted 1:200 in 3% BSA/PBS) (Sigma-Aldrich Co.) and anti-SQSTM1/p62 rabbit monoclonal antibody (diluted 1:100 in 3% BSA/PBS) (Abcam) for 1 h 30 min. After PBS washing, coverslips were incubated with fluorescent secondary antibodies Alexa Fluor 488 goat anti-mouse IgG and Alexa Fluor 594 anti-rabbit (both diluted 1:400 in 1% BSA/PBS) (Molecular Probes, Invitrogen, Thermo Fischer Scientific) for 1 h in darkness. […] Cells were analysed by confocal microscopy using a LEICA SP5 microscope DMI-6000V model coupled to a LEICA LAS AF software computer.

The subject of the next test is p-62 in HT-29 cells. In words: Western blot of autophagosome marker p-62, HT-29. Type of test: cell-based, human. The following applies: HT-29, 175 nM, 24 h. As to the method: MCF7, HeLa and HT-29 cells in an exponential growth phase at 2 × 10^4 cells/mL were seeded in Petri dishes (20 × 100 mm) (10 ml/dish). After 24 h incubation, cells were treated with compound 25 at 175 nM, and the levels of p-62 in treated and untreated cells were measured at 24 h post-treatment. The culture medium was removed, cells were washed with PBS and resuspended in 1 ml lysis buffer (50 mM Tris, 130 mM NaCl, 1 mM EDTA, 1% Triton X-100) containing protease inhibitors (Complete, Roche Applied Science, Indianapolis). Cells were harvested and incubated with lysis buffer for 30 min at 4 °C in constant agitation. Cell extracts were centrifuged at 12,000 rpm for 15 min at 4 °C and the supernatants were stored at −80 °C. Protein concentrations were determined using Bradford (BioRad, Hercules, CA) method taking BSA (Bovine Serum Albumin) as standard. Protein extracts were used for electrophoresis mixing with loading buffer (4% SDS, 0.05% bromophenol blue, 20% glycerine, 2% β-mercaptoethanol, and Tris 100 mM at pH 6.8). Proteins were then denatured at 95 °C for 7 min. Protein samples (50 μg/lane) were subjected to electrophoresis on 8% acrylamide gel and SDS-PAGE running buffer at constant voltage (140 V). Then, acrylamide gels were transferred to a PVDF membrane (Merck Millipore, Burlington, Massachusetts, USA) using a semi-dry transfer system for 30 min at constant voltage (15 V). […]
(In general: Immunoblotting shows a protein as a band on a membrane.)

`COc1ccc(S(=O)(=O)N(CC#N)c2cc(OC)c(Br)cc2OC)cc1` [Compound 25, N-(4-bromo-2,5-dimethoxyphenyl)-N-(cyanomethyl)-4-methoxybenzenesulphonamide]: the “Selectivity index HEK293 vs HeLa and MCF7 tumour cells” value in test [1] lay in the range of 0.5 to 2 fold. Further, the IC50 in test [1] (Homo sapiens, HEK293, non-tumorigenic cell line, 72 h, XTT, read-out: Antiproliferative activity IC50 HEK293) was 45 nM. For the same molecule, the “Effect on microtubule network” value in test [2] was “disrupted the microtubule network”. Besides, the p-62 levels entry in the test on p-62 in HT-29 cells is recorded as “almost complete reduction in the expression of p-62”.
